Measurements reported in patent US4530930A, “Antimicrobial 1-ethyl-6,8-difluoro-1,4-dihydro-7-(1-imidazolyl)-4-oxoquinoline-3-carbo xylic acid derivatives” (Kanebo, Ltd., priority 1982, dated 1985).
Values after ≈ are worked out from the molar mass of the structure shown. “Also recorded” adds a separate entry of the source. Read-outs that look alike come from different tables or passages of the source.

Assays:
[1] = test system: Bacillus subtilis ATCC 6633; experiment: MIC; assay type: cell-based; details: ATCC6633, gram positive
Protocol: (§1) In accordance with the method as disclosed in Chemotherapy, Vol. 29, pages 76-79 (1981), MIC (μg/ml) of each test compound was measured.

[2] = test system: Escherichia coli NIHJ JC-2; experiment: MIC; assay type: cell-based; details: NIHJJC2, gram negative
Protocol: as §1

[3] = test system: Klebsiella pneumoniae PCI-602; experiment: MIC; assay type: cell-based; details: PCI602, gram negative
Protocol: as §1

[4] = test system: Proteus Vulgaris HX-19; experiment: MIC; assay type: cell-based; details: gram negative
Protocol: as §1

[5] = test system: Pseudomonas aeruginosa IFO 3445; experiment: MIC; assay type: cell-based
Protocol: as §1

[6] = test system: Salmonella paratyphi 1015; experiment: MIC; assay type: cell-based; details: Salmonella enterica
Protocol: as §1

[7] = test system: Serratia marcescens IAM 1184; experiment: MIC; assay type: cell-based; details: IAM1184, gram negative
Protocol: as §1

[8] = test system: Staphylococcus aureus FDA 209P JC-1; experiment: MIC; assay type: cell-based; details: FDA209P, gram positive
Protocol: as §1

[9] = test system: Staphylococcus epidermidis; experiment: MIC; assay type: cell-based; details: gram positive
Protocol: as §1

[10] = Bioavailability in oral administration in mice; assay type: in vivo, ddY-strain male mice; details: mice; for concentration at 0.5 h / concentration at 1 h / concentration at 2 h / concentration at 4 h / AUC at 4 h: mouse, serum, oral 50 mg/kg; for concentration at 0.5 h: after 30 min.; for concentration at 0.5 h / concentration at 1 h / concentration at 2 h / concentration at 4 h: read-out: Concentration in serum; for concentration at 1 h: after 60 min.; for concentration at 2 h: after 120 min.; for concentration at 4 h: after 240 min.; for AUC at 4 h: 1-4 hrs., read-out: AUC
Protocol: Each of the test compounds was suspended in a 0.5% sodium carboxymethylcellulose to prepare a suspension having a concentration of 5 mg/ml of the compound.
ddY-strain male mice (5 week old, weighing 22 to 25 g, three per group) were used. The suspension was orally administered to mice fasted for 16 hours. The dose of the test compound was adjusted to 50 mg/kg of body weight of animal. 30, 60, 120, and 240 minutes after the administration of the test compound, blood was taken out from each mouse, and the blood sample thus obtained was centrifuged at 3,000 rpm for 20 minutes to obtain a serum sample.

[11] = Bioavailability in oral administration in rats; assay type: in vivo, Wistar-strain male rats; parameters: AUC at 4 h: concentration or dose not given beside the values; details: rat, plasma, rats, oral; for concentration at 0.5 h: after 30 min.; for concentration at 0.5 h / concentration at 1 h / concentration at 2 h / concentration at 4 h: read-out: Concentration in plasma; for concentration at 1 h: after 60 min.; for concentration at 2 h: after 120 min.; for concentration at 4 h: after 240 min.; for AUC at 4 h: 1-4 hrs., read-out: AUC
Protocol: Each of the test compounds was suspended in a 0.5% sodium carboxymethylcellulose to prepare a suspension having a concentration of 5 mg/ml of the test compound.
Wistar-strain male rats (weighing 160 g ±20 g, three per group) were used. The suspension was orally administered to rats fasted 16 hours. 30, 60, 120, and 240 minutes after the administration of the test compound, blood was taken out from the rats. The blood was centrifuged at 3,000 rpm for 20 minutes to obtain a plasma sample. In the same manner as described in Experiment 2, the concentration (μg/ml) of test compound in plasma and also AUC (μg.hr/ml) were measured.

[12] = test system: ddY-strain male mice; details: p.o.; data reported at Nippon Kagakuryohogakkai 28th Meeting (1980, Tokyo); 10080 min; cited from earlier work
[13] = test system: ddY-strain male mice; details: i.v.; data reported at Nippon Kagakuryohogakkai 28th Meeting (1980, Tokyo); 10080 min; cited from earlier work
[14] = test system: Microorganisms; experiment: In vitro anti-microbial activity (MIC), overall; assay type: cell-based; details: Experiment 1
Protocol: as §1

[15] = in vivo; details: mouse, in vivo, po
Protocol: (§2) The acute toxicities in oral administration and intravenous injection of the test compounds were tested as follows:
In oral administration: To ddY-strain male mice (weighing 20-25 g, five per group) was administered orally a suspension of each test compound in a 0.5% sodium carboxymethylcellulose. […] J. Biometric Soc., 8, 249 (1959)].

[16] = in vivo; assay type: in vivo; details: mouse, in vivo, iv
Protocol: as §2
In intravenous administration: Each of the test compounds was dissolved in 1N aqueous sodium hydroxide solution and thereto was added a phosphoric acid-saline buffer (pH 7.2) to prepare a test solution. The test solution was intravenously injected to ddy-strain male mice (weighing 20-25 g, five per group). One week after the administration of the test solution, the LD50 was determined in accordance with Weil method.

[17] = IFO3445, gram negative, read-out: MIC

| Compound | MIC [1] [µg/mL] | MIC [2] [µg/mL] | MIC [3] [µg/mL] | MIC [4] [µg/mL] | MIC [6] [µg/mL] | MIC [7] [µg/mL] | MIC [8] [µg/mL] | MIC [9] [µg/mL] | concentration at 0.5 h [10] [ng/mL] | concentration at 1 h [10] [ng/mL] | concentration at 2 h [10] [ng/mL] | concentration at 4 h [10] [ng/mL] | AUC at 4 h [10] [ng·h/mL] | concentration at 0.5 h [11] [ng/mL] | concentration at 1 h [11] [ng/mL] | concentration at 2 h [11] [ng/mL] | concentration at 4 h [11] [ng/mL] | AUC at 4 h [11] [ng·h/mL] | MIC [5, 17] [µg/mL] | also measured |
| --- | --- | --- | --- | --- | --- | --- | --- | --- | --- | --- | --- | --- | --- | --- | --- | --- | --- | --- | --- | --- |
| CCn1cc(C(=O)O)c(=O)c2cc(F)c(N3CCNCC3)cc21 [Compound A, 1-ethyl-1,4-dihydro-6-fluoro-4-oxo-7-(1-piperazinyl)quinoline-3-carboxylicacid] | 0.39 (≈ 1.22 µM) | 0.39 (≈ 1.22 µM) | 0.1 (≈ 0.313 µM) | 0.1 (≈ 0.313 µM) | 0.1 (≈ 0.313 µM) | 0.39 (≈ 1.22 µM) | 0.39 (≈ 1.22 µM) | 3.13 (≈ 9.8 µM) | 1050 ± 240 | 690 ± 70 | 400 ± 50 | 360 ± 30 | 2000 | 1810 ± 140 | 1190 ± 20 | 630 ± 110 | 250 ± 10 | 2990 | – | MIC ([5]; IFO3445): 1.56 µg/mL (≈ 4.89 µM); LD50 [12]: > 4,000 mg/kg; LD50 [13]: 220 mg/kg |
| CC1COc2c(-n3ccnc3)c(F)cc3c(=O)c(C(=O)O)cn1c23 (stereo not shown) [F, 2,3-dihydro-9-fluoro-10-(1-imidazolyl)-3-methyl-7-oxo-7H-pyrido[1,2,3-de][1,4]benzoxazine-6-carboxylic acid] | 0.1 (≈ 0.304 µM) | 0.39 (≈ 1.18 µM) | 0.05 (≈ 0.152 µM) | 0.025 (≈ 0.0759 µM) | 0.05 (≈ 0.152 µM) | 3.12 (≈ 9.48 µM) | 0.19 (≈ 0.577 µM) | 1.56 (≈ 4.74 µM) | 6400 ± 1800 | 2600 ± 1000 | 1200 ± 300 | 600 ± 200 | 7500 | – | – | – | – | – | 3.12 (≈ 9.48 µM) | bioavailability when administered orally, in words ([10]; oral, Experiment 2): inferior to the compounds of the present invention in the bioavailability |
| CCn1cc(C(=O)O)c(=O)c2cnc(-n3ccnc3)cc21 [E, 1-ethyl-1,4-dihydro-7-(1-imidazolyl)-4-oxo-1,6-naphthylidine-3-carboxylic acid] | 100 (≈ 352 µM) | > 100 | 25 (≈ 87.9 µM) | 3.12 (≈ 11 µM) | 12.5 (≈ 44 µM) | 100 (≈ 352 µM) | > 100 | > 100 | – | – | – | – | – | – | – | – | – | – | > 100 | anti-microbial activities in vitro (MIC), in words [14]: less antimicrobial activities; also recorded: far less activities |
| CCn1cc(C(=O)O)c(=O)c2cc(F)c(N3CCN(C)CC3)c(F)c21 [D, 1-ethyl-6,8-difluoro-1,4-dihydro-7-[1-(4-methylpiperazinyl)]-4-oxoquinoline-3-carboxylic acid] | 0.2 (≈ 0.569 µM) | 0.2 (≈ 0.569 µM) | 0.1 (≈ 0.285 µM) | 0.05 (≈ 0.142 µM) | 0.1 (≈ 0.285 µM) | 0.78 (≈ 2.22 µM) | 0.78 (≈ 2.22 µM) | 1.56 (≈ 4.44 µM) | 14400 ± 800 | 11500 ± 900 | 6700 ± 600 | 3400 ± 400 | 29300 | 22600 ± 4500 | 24000 ± 2300 | 14600 ± 1100 | 9300 ± 100 | 60400 | 1.56 (≈ 4.44 µM) | LD50 at 168 h [15]: 536 mg/kg; LD50 at 168 h [16]: 196 mg/kg |
